Assay results taken from patent US8686113B2 (priority 2009, dated 2014).
Values after ≈ are worked out from the molar mass of the structure shown. Non-standard residues stand in square brackets, D forms with d. Residues, ends and D or L forms follow the SMILES beside them. Hyp = O=C(O)[C@@H]1C[C@@H](O)CN1; hArg = N=C(N)NCCCC[C@H](N)C(=O)O; Agp = N=C(N)NC[C@H](N)C(=O)O; dOrn = NCCC[C@@H](N)C(=O)O; Orn = NCCC[C@H](N)C(=O)O

What was measured:
[1] = tested on: E. coli BL21 A1; type: cell-based, Escherichia coli; settings: BL21, 20 h
Method: (§1) The minimum inhibitory concentrations (MIC) of the antimicrobial peptides and peptide derivatives were determined in microdilution assays. These used a continuous peptide dilution in sterile flat-bottomed 96-well microtiter plates (polystyrene, Greiner Bio-One GmbH, Frickenhausen, Germany) and a total volume of 100 μL per well. The aqueous peptide or peptidomimetic solutions were diluted with 1% TSB water, to obtain a final concentration of 256 μg/mL. 50 μL of the peptide or peptidomimetic solution was pipetted into the first well of each series and stirred. From this solution, 50 μL was transferred to the second well, stirred and again 50 μL was transferred to the next well, and so on. A double dilution series is obtained, beginning at 256 μg/mL in the first well to 125 ng/mL in the twelfth well. The bacteria, e.g. E. coli BL21 A1, were cultured overnight at 37° C. in nutrient broth (NB, Carl Roth GmbH+Co. KG, Karlsruhe, Germany). 50 μL of a 5×10^6 bacteria/mL suspension in 1% TSB was added to each well of the microtiter plate and thus a final concentration of the peptides or peptidomimetics from 128 μg/mL (well 1) to 62.5 ng/mL (well 12) was established in each series. The plates were incubated at 37° C. for 20 h and then the absorption was measured at 595 nm with a TECAN microtiter plate spectrophotometer (Tecan Trading AG, Mannedorf, Switzerland). The MIC values of all peptides and peptidomimetics were determined in triplicate. Sterile water was used as negative control. The MIC value represents the lowest peptide concentration at which no bacterial growth is observed after an incubation time of 20 h at 37° C.
(§2) The MIC values of the peptides and peptide derivatives against Escherichia coli BL21 A1 and Micrococcus luteus ATCC 10240 are given in Table 7.

[2] = tested on: M. luteus 10240; test: Growth inhibition assay (microdilution MIC); type: cell-based, Micrococcus luteus; settings: 10240, 20 h
Method: as §1, §2

Molecule: CC[C@H](C)[C@H](NC(=O)[C@H](CCCCNC(=N)N)NC(=O)[C@H](CCCNC(=N)N)NC(=O)[C@@H]1CCCN1C(=O)[C@@H]1CCCN1C(=O)[C@H](CCCNC(=N)N)NC(=O)[C@@H]1CCCN1C(=O)[C@H](CCCNC(=N)N)NC(=O)[C@@H]1CCCN1C(=O)[C@H](CC(C)C)NC(=O)[C@H](Cc1ccc(O)cc1)NC(=O)[C@@H]1CCCN1C(=O)[C@@H]1CCCN1C(=O)[C@H](CCCCN)NC(=O)[C@H](CC(=O)O)NC(=O)[C@@H](N)C(C)C)C(=O)N[C@@H](Cc1ccc(O)cc1)C(=O)N[C@@H](CC(N)=O)C(=O)N[C@@H](CNC(=N)N)C(N)=O [compound 68] (H-VDKPPYLPRPRPPR[hArg]IYN[Agp]-NH2)
- MIC E. coli BL21 A1 [1]: 4 µg/mL (≈ 1.68 µM)
- MIC M. luteus 10240 [2]: 4 µg/mL (≈ 1.68 µM)

Molecule: CC[C@H](C)[C@H](NC(=O)[C@H](CCCN)NC(=O)[C@H](CCCNC(=N)N)NC(=O)[C@@H]1CCCN1C(=O)[C@@H]1CCCN1C(=O)[C@H](CCCNC(=N)N)NC(=O)[C@@H]1CCCN1C(=O)[C@H](CCCNC(=N)N)NC(=O)[C@@H]1CCCN1C(=O)[C@H](CC(C)C)NC(=O)[C@H](Cc1ccc(O)cc1)NC(=O)[C@@H]1CCCN1C(=O)[C@@H]1CCCN1C(=O)[C@H](CCCCN)NC(=O)[C@H](CC(=O)O)NC(=O)[C@@H](N)C(C)C)C(=O)N[C@@H](Cc1ccc(O)cc1)C(=O)N[C@@H](CC(N)=O)C(=O)N[C@@H](CNC(=N)N)C(N)=O [compound 69] (H-VDKPPYLPRPRPPR[Orn]IYN[Agp]-NH2)
- MIC E. coli BL21 A1 [1]: 4 µg/mL (≈ 1.72 µM)
- MIC M. luteus 10240 [2]: 4 µg/mL (≈ 1.72 µM)

Molecule: CC[C@H](C)[C@H](NC(=O)[C@H](CCCN)NC(=O)[C@H](CCCNC(=N)N)NC(=O)[C@@H]1CCCN1C(=O)[C@@H]1CCCN1C(=O)[C@H](CCCNC(=N)N)NC(=O)[C@@H]1CCCN1C(=O)[C@H](CCCNC(=N)N)NC(=O)[C@@H]1CCCN1C(=O)[C@H](CC(C)C)NC(=O)[C@H](Cc1ccc(O)cc1)NC(=O)[C@@H]1CCCN1C(=O)[C@@H]1CCCN1C(=O)[C@H](CCCCN)NC(=O)[C@H](CC(=O)O)NC(=O)[C@@H](N)C(C)C)C(=O)N[C@@H](Cc1ccc(O)cc1)C(=O)N[C@@H](CC(N)=O)C(=O)N[C@@H](CCCCNC(=N)N)C(N)=O [compound 70] (H-VDKPPYLPRPRPPR[Orn]IYN[hArg]-NH2)
- MIC E. coli BL21 A1 [1]: 4 µg/mL (≈ 1.69 µM)
- MIC M. luteus 10240 [2]: 4 µg/mL (≈ 1.69 µM)

Molecule: CC[C@H](C)[C@H](NC(=O)[C@H](CCCNC(=N)N)NC(=O)[C@H](CCCNC(=N)N)NC(=O)[C@@H]1CCCN1C(=O)[C@@H]1CCCN1C(=O)[C@H](CCCNC(=N)N)NC(=O)[C@@H]1CCCN1C(=O)[C@H](CCCNC(=N)N)NC(=O)[C@@H]1CCCN1C(=O)[C@H](CC(C)C)NC(=O)[C@H](Cc1ccc(O)cc1)NC(=O)[C@@H]1CCCN1C(=O)[C@@H]1CCCN1C(=O)[C@H](CCCCN)NC(=O)[C@H](CC(=O)O)NC(=O)[C@@H](NC(=O)[C@@H](CS)NC(=O)[C@H](C)N)C(C)C)C(=O)N[C@@H](Cc1ccc(O)cc1)C(=O)N[C@@H](CC(N)=O)C(=O)N[C@@H](CCCNC(=N)N)C(=O)O [compound 80] (H-A[dC]VDKPPYLPRPRPPRRIYNR-OH)
- MIC E. coli BL21 A1 [1]: >256 µg/mL
- MIC M. luteus 10240 [2]: 16 µg/mL (≈ 6.24 µM)

Molecule: CC[C@H](C)[C@H](NC(=O)[C@H](CCCNC(=N)N)NC(=O)[C@H](CCCNC(=N)N)NC(=O)[C@@H]1CCCN1C(=O)[C@@H]1CCCN1C(=O)[C@H](CCCNC(=N)N)NC(=O)[C@@H]1CCCN1C(=O)[C@H](CCCNC(=N)N)NC(=O)[C@@H]1CCCN1C(=O)[C@H](CC(C)C)NC(=O)[C@H](Cc1ccc(O)cc1)NC(=O)[C@@H]1CCCN1C(=O)[C@@H]1CCCN1C(=O)[C@H](CCCCN)NC(=O)[C@H](CC(=O)O)NC(=O)[C@@H](N)CCCN)C(=O)N[C@@H](Cc1ccc(O)cc1)C(=O)N[C@@H](CC(N)=O)C(=O)N[C@@H](CCCNC(=N)N)C(N)=O [compound 82] (H-[Orn]DKPPYLPRPRPPRRIYNR-NH2)
- MIC E. coli BL21 A1 [1]: 8 µg/mL (≈ 3.33 µM)
- MIC M. luteus 10240 [2]: 8 µg/mL (≈ 3.33 µM)

Molecule: CC[C@H](C)[C@H](NC(=O)[C@H](CCCNC(=N)N)NC(=O)[C@H](CCCNC(=N)N)NC(=O)[C@@H]1CCCN1C(=O)[C@@H]1CCCN1C(=O)[C@H](CCCNC(=N)N)NC(=O)[C@@H]1CCCN1C(=O)[C@H](CCCNC(=N)N)NC(=O)[C@@H]1CCCN1C(=O)[C@H](CC(C)C)NC(=O)[C@H](Cc1ccc(O)cc1)NC(=O)[C@@H]1CCCN1C(=O)[C@@H]1CCCN1C(=O)[C@H](CCCCN)NC(=O)[C@H](CC(=O)O)NC(=O)[C@H](CCCN)NC(=O)[C@@H](CS)NC(=O)[C@H](C)N)C(=O)N[C@@H](Cc1ccc(O)cc1)C(=O)N[C@@H](CC(N)=O)C(=O)N[C@@H](CCCNC(=N)N)C(N)=O [compound 83] (H-A[dC][Orn]DKPPYLPRPRPPRRIYNR-NH2)
- MIC E. coli BL21 A1 [1]: 16 µg/mL (≈ 6.2 µM)
- MIC M. luteus 10240 [2]: 16 µg/mL (≈ 6.2 µM)

Molecule: CC[C@H](C)[C@H](NC(=O)[C@H](Cc1ccc(O)cc1)NC(=O)[C@H](CC(N)=O)NC(=O)[C@@H](N)CCCN)C(=O)N[C@@H](CCCN)C(=O)N[C@@H](CCCNC(=N)N)C(=O)N1CCC[C@H]1C(=O)N1CCC[C@H]1C(=O)N[C@@H](CCCNC(=N)N)C(=O)N1CCC[C@H]1C(=O)N[C@@H](CCCNC(=N)N)C(=O)N1CCC[C@H]1C(=O)N[C@@H](CC(C)C)C(=O)N[C@@H](Cc1ccc(O)cc1)C(=O)N1CCC[C@H]1C(=O)N1CCC[C@H]1C(=O)N[C@@H](CCCCN)C(=O)N[C@@H](CC(=O)O)C(=O)N[C@H](C(N)=O)C(C)C [compound 113] (H-[Orn]NYI[Orn]RPPRPRPLYPPKDV-NH2)
- MIC E. coli BL21 A1 [1]: >256 µg/mL
- MIC M. luteus 10240 [2]: 64 µg/mL (≈ 27.8 µM)

Molecule: CC[C@H](C)[C@H](NC(=O)[C@H](Cc1ccc(O)cc1)NC(=O)[C@H](CC(N)=O)NC(=O)[C@@H](N)CCCN)C(=O)N1C[C@H](O)C[C@H]1C(=O)N[C@@H](CCCNC(=N)N)C(=O)N1CCC[C@H]1C(=O)N1CCC[C@H]1C(=O)N[C@@H](CCCNC(=N)N)C(=O)N1CCC[C@H]1C(=O)N[C@@H](CCCNC(=N)N)C(=O)N1CCC[C@H]1C(=O)N[C@@H](CC(C)C)C(=O)N[C@@H](Cc1ccc(O)cc1)C(=O)N1CCC[C@H]1C(=O)N1CCC[C@H]1C(=O)N[C@@H](CCCCN)C(=O)N[C@@H](CC(=O)O)C(=O)N[C@H](C(N)=O)C(C)C [compound 114] (H-[Orn]NYI[Hyp]RPPRPRPLYPPKDV-NH2)
- MIC E. coli BL21 A1 [1]: >256 µg/mL
- MIC M. luteus 10240 [2]: 128 µg/mL (≈ 55.5 µM)

Molecule: CC[C@@H](C)[C@@H](NC(=O)[C@@H](CCCNC(=N)N)NC(=O)[C@@H](CCCNC(=N)N)NC(=O)[C@H]1CCCN1C(=O)[C@H]1CCCN1C(=O)[C@@H](CCCNC(=N)N)NC(=O)[C@H]1CCCN1C(=O)[C@@H](CCCNC(=N)N)NC(=O)[C@H]1CCCN1C(=O)[C@@H](CC(C)C)NC(=O)[C@@H](Cc1ccc(O)cc1)NC(=O)[C@H]1CCCN1C(=O)[C@H]1CCCN1C(=O)[C@@H](CCCCN)NC(=O)[C@@H](CC(=O)O)NC(=O)[C@H](N)C(C)C)C(=O)N[C@H](Cc1ccc(O)cc1)C(=O)N[C@H](CC(N)=O)C(=O)N[C@H](CCCNC(=N)N)C(N)=O [compound 115] (H-[dV][dD][dK][dP][dP][dY][dL][dP][dR][dP][dR][dP][dP][dR][dR][dI][dY][dN][dR]-NH2)
- MIC E. coli BL21 A1 [1]: 64 µg/mL (≈ 26.8 µM)
- MIC M. luteus 10240 [2]: 16 µg/mL (≈ 6.69 µM)

Molecule: CC[C@@H](C)[C@@H](NC(=O)[C@@H](CCCN)NC(=O)[C@@H](CCCNC(=N)N)NC(=O)[C@H]1CCCN1C(=O)[C@H]1CCCN1C(=O)[C@@H](CCCNC(=N)N)NC(=O)[C@H]1CCCN1C(=O)[C@@H](CCCNC(=N)N)NC(=O)[C@H]1CCCN1C(=O)[C@@H](CC(C)C)NC(=O)[C@@H](Cc1ccc(O)cc1)NC(=O)[C@H]1CCCN1C(=O)[C@H]1CCCN1C(=O)[C@@H](CCCCN)NC(=O)[C@@H](CC(=O)O)NC(=O)[C@H](N)C(C)C)C(=O)N[C@H](Cc1ccc(O)cc1)C(=O)N[C@H](CC(N)=O)C(=O)N[C@H](CCCN)C(N)=O [compound 116] (H-[dV][dD][dK][dP][dP][dY][dL][dP][dR][dP][dR][dP][dP][dR][dOrn][dI][dY][dN][dOrn]-NH2)
- MIC E. coli BL21 A1 [1]: 64 µg/mL (≈ 27.8 µM)
- MIC M. luteus 10240 [2]: 32 µg/mL (≈ 13.9 µM)

Molecule: CC[C@@H](C)[C@@H](NC(=O)[C@@H](Cc1ccc(O)cc1)NC(=O)[C@@H](CC(N)=O)NC(=O)[C@H](N)CCCN)C(=O)N[C@H](CCCN)C(=O)N[C@H](CCCNC(=N)N)C(=O)N1CCC[C@@H]1C(=O)N1CCC[C@@H]1C(=O)N[C@H](CCCNC(=N)N)C(=O)N1CCC[C@@H]1C(=O)N[C@H](CCCNC(=N)N)C(=O)N1CCC[C@@H]1C(=O)N[C@H](CC(C)C)C(=O)N[C@H](Cc1ccc(O)cc1)C(=O)N1CCC[C@@H]1C(=O)N1CCC[C@@H]1C(=O)N[C@H](CCCCN)C(=O)N[C@H](CC(=O)O)C(=O)N[C@@H](C(N)=O)C(C)C [compound 118] (H-[dOrn][dN][dY][dI][dOrn][dR][dP][dP][dR][dP][dR][dP][dL][dY][dP][dP][dK][dD][dV]-NH2)
- MIC E. coli BL21 A1 [1]: 256 µg/mL (≈ 111 µM)
- MIC M. luteus 10240 [2]: 32 µg/mL (≈ 13.9 µM)

Molecule: H-ADKPPYLPRPRPPRRIYNR-NH2 [compound 29]
- MIC E. coli BL21 A1 [1]: 8 µg/mL
- MIC M. luteus 10240 [2]: 4 µg/mL

Molecule: H-DKPPYLPRPRPPRRIYNR-NH2 [compound 86]
- MIC E. coli BL21 A1 [1]: 32 µg/mL
- MIC M. luteus 10240 [2]: 8 µg/mL

Molecule: H-VAKPPYLPRPRPPRRIYNR-NH2 [compound 30]
- MIC E. coli BL21 A1 [1]: 16 µg/mL
- MIC M. luteus 10240 [2]: 4 µg/mL

Molecule: H-VDAPPYLPRPRPPRRIYNR-NH2 [compound 31]
- MIC E. coli BL21 A1 [1]: 64 µg/mL
- MIC M. luteus 10240 [2]: 32 µg/mL

Molecule: H-VDKAPYLPRPRPPRRIYNR-NH2 [compound 32]
- MIC E. coli BL21 A1 [1]: 8 µg/mL
- MIC M. luteus 10240 [2]: 8 µg/mL
